# From paper doi:10.1101/2025.06.18.657655, “Fibulin-4 is highly expressed in metastatic breast cancer and can serve as a target of peptide-based imaging probes and experimental therapeutics” (bioRxiv, 2025)
# Bridge positions count the residues as written; N and C are the ends. Square brackets hold non-standard residues; d marks the D form. Ends that are not written are not given here. * marks the point of attachment. Biotin = O=C1N[C@H]2[C@H](CS[C@H]2CCCCC(=O)*)N1
# T1: FBLN4 (Mus musculus, UniProt Q9WVJ9)
# T1 construct: proteins extracted from 4T1 cells were incubated with beads pre-loaded with BLMP6; endogenous in cells; host or cells: 4T1 mouse breast cancer cells
# T1 sequence (Q9WVJ9 28-443): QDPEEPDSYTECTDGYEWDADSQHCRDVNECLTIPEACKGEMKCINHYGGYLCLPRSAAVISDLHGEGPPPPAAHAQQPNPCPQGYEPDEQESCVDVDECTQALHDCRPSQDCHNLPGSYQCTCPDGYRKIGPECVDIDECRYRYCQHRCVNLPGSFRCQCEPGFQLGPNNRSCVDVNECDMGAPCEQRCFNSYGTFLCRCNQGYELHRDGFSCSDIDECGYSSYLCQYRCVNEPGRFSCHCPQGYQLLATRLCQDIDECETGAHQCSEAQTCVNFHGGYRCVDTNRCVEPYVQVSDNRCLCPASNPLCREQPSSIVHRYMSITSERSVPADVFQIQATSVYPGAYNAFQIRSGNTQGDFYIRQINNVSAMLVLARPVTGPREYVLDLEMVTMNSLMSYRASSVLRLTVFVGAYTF
# T2: Fibulin-4 protein (Abcam, 182808) (UniProt O95967 24-443)
# T2 chain: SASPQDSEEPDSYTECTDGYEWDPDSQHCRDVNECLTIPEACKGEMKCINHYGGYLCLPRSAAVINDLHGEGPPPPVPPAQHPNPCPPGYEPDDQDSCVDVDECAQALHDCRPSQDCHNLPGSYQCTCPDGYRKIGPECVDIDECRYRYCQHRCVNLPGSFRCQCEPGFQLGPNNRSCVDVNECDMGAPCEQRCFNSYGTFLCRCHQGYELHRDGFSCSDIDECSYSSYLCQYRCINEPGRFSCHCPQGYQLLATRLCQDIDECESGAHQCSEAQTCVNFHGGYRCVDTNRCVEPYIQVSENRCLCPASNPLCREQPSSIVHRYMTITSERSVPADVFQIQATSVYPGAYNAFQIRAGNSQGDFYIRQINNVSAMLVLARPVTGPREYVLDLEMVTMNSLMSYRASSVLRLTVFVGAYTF
# B1: MMAE-BLMP6 (peptide)
# peptide: [dC][dR][dA]G[dV]G[dR]G[dC]
# modifications: disulfide 1-9 (inferred); also: MMAE coupled via PAB-Cit-Val-PEG4 linker, site not given here
# What was measured:
# FBLN4 = molecular target: T1, FBLN4; assay: Affinity purification of FBLN4 from 4T1 cell extract on BLMP6-loaded beads; assay type: binding; details: biotinylated BLMP6 immobilized on streptavidin-coated beads; not isolated on control beads
# Experimental: To test if BLMP6 binds to FBLN4 in vitro, we used Octet to perform the biolayer interferometry assay. […] To confirm BLMP6 binding to FBLN4 expressed by cancer cells, proteins extracted from 4T1 cells were incubated with beads pre-loaded with BLMP6. […] To confirm BLMP6 binding to FBLN4 in a genetic model, we used CRISPR/Cas9 to make 4T1 FBLN4 knockout (KO) cells confirmed by RT-PCR (Figure 1E). FBLN4-KO and control 4T1-luc cells were grafted into mice, and once metastases were detected by bioluminescence, phage displaying BLMP6 ([6]) was injected. After 30 min of circulation, heart perfusion was performed, and lungs were recovered. Section histopathology confirmed metastasis formation in all lungs, indicating FBLN4 expression is not required for cancer cell colonization and growth at the secondary site.
# [1] = system: HEK293 cells ectopically expressing FBLN4; assay: Fluorescent peptide binding to HEK293 cells; assay type: cell-based; details: Figure S2A
# [2] = system: invasive and metastatic cancer cells in tissue sections; assay: Overlay assay on paraffin tissue sections
# Experimental: Octet binding assays were performed with an Octet RED96 system (ForteBio) as described ([13]). Briefly, the peptides were loaded onto streptavidin resin-coated biosensors (Sartorius Lab, 18–5019) at a concentration of 20 ug/ml in 1x kinetic buffer for 5 min. […] For all experiments, Ka (1/Ms) and Kd (1/s) were measured. FortéBio’s data analysis software was employed to fit the binding curve to a 1:1 binding model in order to extract association and dissociation rates. Overlay assay on tissues was performed by incubating AZDye555-BLMP6 (12.5 ug/ml) for 2 hr and washing with PBS before fixation with 4% paraformaldehyde.
# Stability in mouse serum = assay type: in vitro ADME; details: Figure S4B-C
# Text: To test MMAE-BLMP6 efficacy in vivo, we first analyzed its stability in mouse serum. […] We then used the experimental lung metastasis model of B16F10 cells injected intravenously to produce lung metastases.
# B16F10 lung metastases = assay: B16F10 experimental lung metastasis model, treatment; assay type: in vivo, mouse; details: B16F10-luc iv
# Text: (§1) Animal studies were approved by the IACUC of UTHealth. Spontaneous cancer progression to metastases was modeled by injecting 2×10^4 4T1 cells into the mammary fat pad of 10-week-old female Balb/c mice (Jackson Laboratory) with a 31-gauge needle. Metastatic progression was monitored with bioluminescence imaging. For lung metastasis modeling, Balb/c mice were tail vein-injected with 2.5×10^5 4T1-luc WT or FBLN4-KO cells, C57BL/6 mice (Jackson) were tail vein-injected with 1×10^5 B16F10 cells, and athymic Nude-Foxn1nu (Envigo) mice were tail vein-injected with 1×10^5 MDA-MB-231-luc-GFP cells. For phage-peptide homing analysis, mice were injected into the tail vein with 5×10^10 transducing units (TU) of phage-BLMP6 ([6]). After 30 min of circulation, heart perfusion with 10 ml of PBS was performed and lung sections were processed. For PET imaging studies, mice were intravenously injected with 7.4 MBq (200 μCi, 5 nmol) of ^68Ga-labeled DOTA-BLMP6 and imaged 45–60 min later using Albira small-animal PET/CT scanner (Bruker After imaging, the mice were euthanized, the tissues of interest were harvested and probe homing was analyzed using a Cobra II automated gamma counter (Packard) and expressed as percentage of the injected dose per gram tissue (%ID/g tissue).
# To test MMAE-BLMP6 efficacy for cancer suppression, we first used the B16F10 experimental lung metastasis model. […]
# [3] = system: MDA-MB-231-luc-GFP lung metastases; assay: MDA-MB-231 experimental lung metastasis model, treatment; assay type: in vivo, mouse
# Text: as §1
# To test MMAE-BLMP6 efficacy for cancer suppression, we first used the B16F10 experimental lung metastasis model. Three MMAE-BLMP6 (50 ug) or PBS subcutaneous injections were done over days 1–6 and four additional MMAE-BLMP6 (100 ug) or PBS subcutaneous injections on days 8–18 after iv injection of B16F10-luc cells (Figure 5A). […] While vehicle-treated mice began dying on day 15, with most animals perishing by day 21, MMAE-BLMP6-treated mice only started showing metastases on day 15 by IVIS and survived 2 to 3 days longer (Figure 5A). In the MDA-MB-231-luc-GFP experimental lung metastasis model, a similar trend was observed (Figure 5C).
# [4] = molecular target: T2, Fibulin-4 protein (Abcam, 182808); assay: BLI
# [5] = molecular target: FBLN4 of mouse 4T1 cancer cells (mouse (endogenous in 4T1)) (UniProt Q9WVJ9)
molecule,measurement,setting,value
"CRAGVGRGC (disulfide 1-9 (inferred)) [BLMP6, cyclic peptide … that homes to disseminating tumor cells]","FBLN4 isolated from 4T1 cell proteins on peptide-loaded beads, immunoblotting with anti-FBLN4 antibodies",FBLN4,the predicted 49 kDa band was observed
AZDye555-BLMP6 (AZDye555-CRAGVGRGC; bridge 1-9 (inferred)),binding to HEK293 cells ectopically expressing FBLN4,[1],confirmed to bind
same,binding to non-transfected control HEK293 cells,[1],not to non-transfected control cells
same,binding to lung sections from mice grafted with 4T1 cells,"[2]; 12.5 ug/ml overlay, 2 hr, paraffin sections",selectively bound to metastatic lesions but not to normal lung
same,binding to lung sections from mice with MDA-MB-231 experimental lung metastases,"[2]; 12.5 ug/ml overlay, paraffin sections, N-cadherin IF",binds to a subpopulation of tumor cells expressing N-cadherin
same,binding across human breast cancer tissue array cores,"[2]; human FFPE tissue arrays: 50 primary, 40 metastatic, 10 adjacent control biopsies",largely concordant with N-cadherin expression
"MMAE-BLMP6: monomethyl auristatin E coupled to all-D BLMP6 via PEG4, valine-citrulline and PAB linker ([dC][dR][dA]G[dV]G[dR]G[dC]; disulfide 1-9 (inferred); also: MMAE coupled via PAB-Cit-Val-PEG4 linker, site not given here)",time after which a secondary degradation peak appeared in mouse serum,Stability in mouse serum,6 h
same,"stability in mouse serum, peaks observed",Stability in mouse serum; after 1 hr,single MMAE-BLMP6 peak was observed
same,"metastasis burden, bioluminescence analysis by IVIS","B16F10 lung metastases; sc 50 ug x3 over days 1-6 and 100 ug x4 on days 8-18, versus PBS, at day 5",metastasis suppression
same,survival longer than vehicle-treated mice,"B16F10 lung metastases; sc 50 ug x3 then 100 ug x4, vehicle mice began dying on day 15, most by day 21",2 to 3 days
same,"survival beyond controls, one treated mouse","[3]; MDA-MB-231-luc-GFP iv, one of the treated mice",9 days
same,"metastasis growth, bioluminescence imaging","[3]; MDA-MB-231-luc-GFP iv, sc treatment versus PBS, days 12 and 21",suppressed metastasis growth
same,"tolerability, clinical observation","[3]; athymic mice, 50 to 100 μg sc, at day 15, treatment interrupted 6 days, re-initiated at 15 μg daily",signs of sickness
"Biotin-CRAGVGRGC (disulfide 1-9 (inferred)) [biotinylated BLMP6, cyclic peptide CRAGVGRGC]",koff,[4],3.18e-07 s⁻¹
B1,"IC50 of cell viability (CellTiter-Blue), 4T1 cells, 24 h after adding MMAE-BLMP6",[5],500 nM
